Results taken from patent publication US11702418B2, “SOS1 inhibitors” (priority 2019, dated 2023).
pIC50, pKi: −log10 of the molar value. Where a name gives a salt, the structure may show the parent alone. Read-outs that look alike come from different tables or passages of the source.

Key:
[1] = tested on: pERK in MKN1 cells; assay: cells; type: cell-based; conditions: Homo sapiens
Method: The cells were incubated for approximately 0.5-1 hour with the compounds solubilized in DMSO at 37° C. Cells were immediately fixed by adding 50 μL of 4% formaldehyde to all wells in a fume hood and the plates were incubated for 20 minutes at room temperature. The formaldehyde was discarded from the plates and 150 μL of ice-cold methanol was added to permeabilize the cells for 10 minutes at −20° C. The methanol was discarded from each of the plates and any liquid remaining in the plate by tapping the plate against paper towels. […] The plates were incubated overnight at 4° C. on a shaker.
On Assay day 2, the primary antibody solution was removed. […] The secondary antibody solution as removed and each plate was washed with PBST 3× times. Any liquid remaining was discarded and the plate was imaged using the Licor Odyssey machine according to the manufacturer's instruction, using a set focus length at 3 mm and both 800 nm and 700 nm filters. The GAPDH normalized scan values for each well were divided by the average of vehicle wells to get the % of pERK inhibition. The IC50 values were then calculated with the Graph pad Prism software.

[2] = target: recombinant human SOS1 polypeptide (amino acids 560-1049) (Homo sapiens (Human), UniProt Q07889); assay: biochemical; type: binding; conditions: read-out: Ki, Inhibition of Labeled Tracer Binding to SOS1
[3] = MKN-1, pERK inhibition, In-Cell Western, MKN1 or H358 cells (Table 24 does not say which), 0.5-1 hour incubation, read-out: IC50
[4] = HTRF displacement, Cy5 labelled tracer, Morrison equation for competitive binding

recombinant human SOS1 polypeptide (amino acids 560-1049), sequence (Q07889 560-1049): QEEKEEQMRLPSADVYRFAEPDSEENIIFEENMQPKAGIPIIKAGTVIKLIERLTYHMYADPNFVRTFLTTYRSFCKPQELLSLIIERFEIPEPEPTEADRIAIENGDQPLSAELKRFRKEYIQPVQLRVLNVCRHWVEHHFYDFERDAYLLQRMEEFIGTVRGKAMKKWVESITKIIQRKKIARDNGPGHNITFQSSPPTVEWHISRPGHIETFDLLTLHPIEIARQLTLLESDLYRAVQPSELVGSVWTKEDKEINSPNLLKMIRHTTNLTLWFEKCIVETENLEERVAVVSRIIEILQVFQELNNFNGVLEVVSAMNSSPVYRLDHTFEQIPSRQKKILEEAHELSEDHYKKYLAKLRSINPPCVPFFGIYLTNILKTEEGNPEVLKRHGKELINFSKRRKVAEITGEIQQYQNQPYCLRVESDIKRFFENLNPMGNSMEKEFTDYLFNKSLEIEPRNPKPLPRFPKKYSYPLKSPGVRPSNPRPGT

Structure (SMILES): Cc1c([C@@H](C)Nc2nnc(C)c3ccc(N4CCS(=O)(=O)CC4)cc23)cccc1C(F)(F)F [Example 10-23, (R)-4-(1-methyl-4-((1-(2-methyl-3-(trifluoromethyl)phenyl)ethyl)amino)phthalazin-6-yl)thiomorpholine 1,1-dioxide]
- pIC50 [1, 3]: 7.72
- pKi [2, 4]: 9.38

Structure (SMILES): Cc1nnc(N[C@H](C)c2cccc(C(F)F)c2F)c2cc(N3C[C@H]4C[C@@H]3CO4)ccc12 [Example 10-85, 7-((1R,4R)-2-oxa-5-azabicyclo[2.2.1]heptan-5-yl)-N-((R)-1-(3-(difluoromethyl)-2-fluorophenyl)ethyl)-4-methylphthalazin-1-amine]
- pIC50 [1, 3]: 7.74
- pKi [2, 4]: 9.11

Structure (SMILES): Cc1nnc(N[C@H](C)c2cccc(C(F)F)c2F)c2cc(N3CC(C)(N(C)C)C3)ncc12 [Example 12-115]
- pIC50 [1, 3]: 7.72
- pKi [2, 4]: 8.78

Structure (SMILES): Cc1c([C@@H](C)Nc2nnc(C)c3ccc(N4CCC5(CCCN5C)CC4)cc23)cccc1C(F)(F)F [Example 10-19, (R)-4-methyl-N-(1-(2-methyl-3-(trifluoromethyl)phenyl)ethyl)-7-(1-methyl-1,8-diazaspiro[4.5]decan-8-yl)phthalazin-1-amine]
- pIC50 [1, 3]: 7.16
- pKi [2, 4]: 9.55

Structure (SMILES): Cc1c([C@@H](C)Nc2nnc(C)c3ccc(N4CC(O)C4)cc23)cccc1C(F)(F)F [Example 10-48, (R)-1-(1-methyl-4-((1-(2-methyl-3-(trifluoromethyl)phenyl)ethyl)amino)phthalazin-6-yl)azetidin-3-ol]
- pIC50 [1, 3]: 7.12
- pKi [2, 4]: 8.87

Structure (SMILES): Cc1cccc([C@@H](C)Nc2nnc(C)c3cnc(N4CC(C)(O)C4)cc23)c1F [Example 12-132]
- pIC50 [1, 3]: 7.12
- pKi [2, 4]: 7.96

Structure (SMILES): Cc1nnc(N[C@H](C)c2cc(F)cc(C(F)(F)F)c2)c2cc(N3CCOCC3)ncc12 [Example 6-14, (R)-N-(1-(3-fluoro-5-(trifluoromethyl)phenyl)ethyl)-4-methyl-7-morpholinopyrido[3,4-d]pyridazin-1-amine]
- pIC50 [1, 3]: 6.49
- pKi [2, 4]: 8.26

Structure (SMILES): Cc1c([C@@H](C)Nc2nncc3ccc(O[C@H]4CC[C@H](N(C)C)C4)cc23)cccc1C(F)(F)F [Example 2-11, 7-(((trans)-3-(dimethylamino)cyclopentyl)oxy)-N-((R)-1-(2-methyl-3-(trifluoromethyl)phenyl)ethyl)phthalazin-1-amine]
- pIC50 [1, 3]: 6.61
- pKi [2, 4]: 8.55

Structure (SMILES): Cc1cn2c(n1)C(C)N(c1ccc3cnnc(N[C@H](C)c4cccc(C(F)(F)F)c4C)c3c1)CC2 (stereo partly drawn) [Example 1-44, 7-(2,8-dimethyl-5,6-dihydroimidazo[1,2-a]pyrazin-7(8H)-yl)-N-((R)-1-(2-methyl-3-(trifluoromethyl)phenyl)ethyl)phthalazin-1-amine]
- pIC50 [1, 3]: 6.63
- pKi [2, 4]: 9.38

Structure (SMILES): Cc1c([C@@H](C)Nc2nnc(C)c3ccc(N4CC5(CCN(C)C5)C4)cc23)cccc1C(F)(F)F [Example 10-41, (R)-4-methyl-N-(1-(2-methyl-3-(trifluoromethyl)phenyl)ethyl)-7-(6-methyl-2,6-diazaspiro[3.4]octan-2-yl)phthalazin-1-amine hydrochloride salt]
- pIC50 ([1]; MKN-1): 7.52
- pKi [2]: 9.28

Structure (SMILES): Cc1nnc(N[C@H](C)c2cccc(F)c2F)c2cc(N3CC(C)(O)C3)ncc12 [Example 12-56]
- pIC50 [1, 3]: 6.52
- pKi [2, 4]: 7.51

Structure (SMILES): Cc1nnc(N[C@H](C)c2ccc(F)cc2F)c2cc(N3CC(C)(O)C3)ncc12 [Example 12-47]
- pIC50 [1, 3]: 6.51
- pKi [2, 4]: 7.41

Structure (SMILES): Cc1c([C@@H](C)Nc2nnc(CN(C)C)c3ccc(N4CCOCC4)cc23)cccc1C(F)(F)F [Example 14-1, (R)-4-((dimethylamino)methyl)-N-(1-(2-methyl-3-(trifluoromethyl)phenyl)ethyl)-7-morpholinophthalazin-1-amine]
- pIC50 ([1]; MKN-1, pERK inhibition, In-Cell Western, MKN1 or H358 cells (Table 24 does not say which), 0.5-1 hour incubation): 7.17
- pKi [2]: 8.05

Structure (SMILES): Cc1nnc(N[C@H](C)c2cccc(C(F)(F)F)c2F)c2cc(N3CCNCC3)ncc12 [Example 12-65]
- pIC50 [1, 3]: 7.80
- pKi [2, 4]: 9.14

Structure (SMILES): Cc1c([C@@H](C)Nc2nnc(C)c3ccc(N4CC(C)(O)C4)cc23)cccc1C(F)(F)F [Example 10-47, (R)-3-methyl-1-(1-methyl-4-((1-(2-methyl-3-(trifluoromethyl)phenyl)ethyl)amino)phthalazin-6-yl)azetidin-3-ol]
- pIC50 [1, 3]: 7.26
- pKi [2, 4]: 8.92

Structure (SMILES): COCCN1C[C@H]2CC[C@@H]1CN2c1cc2c(N[C@H](C)c3cccc(C#N)c3C)nnc(C)c2cn1 [Example 12-70]
- pIC50 [1, 3]: 7.89
- pKi [2, 4]: 9.17

Structure (SMILES): Cc1c([C@@H](C)Nc2nnc(C)c3ccc(N4CCN(C)C5(CC5)C4)cc23)cccc1C(F)(F)F [Example 10-33, (R)-4-methyl-N-(1-(2-methyl-3-(trifluoromethyl)phenyl)ethyl)-7-(4-methyl-4,7-diazaspiro[2.5]octan-7-yl)phthalazin-1-amine]
- pIC50 [1, 3]: 6.56
- pKi [2, 4]: 9.16

Structure (SMILES): Cc1c([C@@H](C)Nc2nnc(C)c3cnc(N4CC(C)(O)C4)cc23)cccc1C(F)(F)F [Example 12-21]
- pIC50 [1, 3]: 7.24
- pKi [2, 4]: 8.88

Structure (SMILES): Cc1c([C@@H](C)Nc2nnc(C)c3ccc(N4CCN5C(=O)CC[C@@H]5C4)cc23)cccc1C(F)(F)F [Example 10-12, (R)-2-(1-methyl-4-(((R)-1-(2-methyl-3-(trifluoromethyl)phenyl)ethyl)amino)phthalazin-6-yl)hexahydropyrrolo[1,2-a]pyrazin-6(2H)-one]
- pIC50 [1, 3]: 7.54
- pKi [2, 4]: 9.40

Structure (SMILES): Cc1c(C#N)cccc1[C@@H](C)Nc1nnc(C)c2ccc(N3CCC(N(C)C)CC3)cc12 [Example 10-57, (R)-3-(1-((7-(4-(dimethylamino)piperidin-1-yl)-4-methylphthalazin-1-yl)amino)ethyl)-2-methylbenzonitrile Formate salt]
- pIC50 ([1]; MKN-1): 7.34
- pKi [2]: 9.12

Structure (SMILES): Cc1c([C@@H](C)Nc2nnc(C)c3ccc(O[C@H]4CCOC4)cc23)cccc1C(F)(F)F [Example 13-1, 4-methyl-N—((R)-1-(2-methyl-3-(trifluoromethyl)phenyl)ethyl)-7-(((S)-tetrahydrofuran-3-yl)oxy)phthalazin-1-amine]
- pIC50 [1, 3]: 6.83
- pKi [2, 4]: 8.56

Structure (SMILES): Cc1c([C@@H](C)Nc2nncc3ccc(N4CC5(CC(N(C)C)C5)C4)cc23)cccc1C(F)(F)F [Example 1-32, (R)-7-(6-(dimethylamino)-2-azaspiro[3.3]heptan-2-yl)-N-(1-(2-methyl-3-(trifluoromethyl)phenyl)ethyl)phthalazin-1-amine]
- pIC50 [1, 3]: 7.00
- pKi [2, 4]: 9.38

Structure (SMILES): Cc1nnc(N[C@H](C)c2cccc(C(F)(F)F)c2F)c2cc(N3CCOCC3)ccc12 [Example 10-77, (R)-N-(1-(2-fluoro-3-(trifluoromethyl)phenyl)ethyl)-4-methyl-7-morpholinophthalazin-1-amine]
- pIC50 [1, 3]: 6.99
- pKi [2, 4]: 9.12

Structure (SMILES): Cc1nnc(N[C@H](C)c2cccc(C(F)F)c2F)c2cc(N3CCN4CCOC[C@@H]4C3)ccc12 [Example 10-86, N-((R)-1-(3-(difluoromethyl)-2-fluorophenyl)ethyl)-7-((S)-hexahydropyrazino[2,1-c][1,4]oxazin-8(1H)-yl)-4-methylphthalazin-1-amine Formate salt]
- pIC50 ([1]; MKN-1): 7.68
- pKi [2]: 8.82

Structure (SMILES): Cc1c([C@@H](C)Nc2nnc(C)c3ccc(OC[C@@H]4CCCN4)cc23)cccc1C(F)(F)F [Example 7-6, 4-methyl-N-((R)-1-(2-methyl-3-(trifluoromethyl)phenyl)ethyl)-7-(((S)-pyrrolidin-2-yl)methoxy)phthalazin-1-amine]
- pIC50 [1, 3]: 6.96
- pKi [2, 4]: 8.85

Structure (SMILES): Cc1cc(F)ccc1[C@@H](C)Nc1nnc(C)c2cnc(N3CCN4CCOC[C@@H]4C3)cc12 [Example 12-79]
- pIC50 [1, 3]: 6.76
- pKi [2, 4]: 7.44

Structure (SMILES): Cc1c([C@@H](C)Nc2nnc(C)c3ccc(OC4COC4)cc23)cccc1C(F)(F)F [Example 13-2, (R)-4-methyl-N-(1-(2-methyl-3-(trifluoromethyl)phenyl)ethyl)-7-(oxetan-3-yloxy)phthalazin-1-amine]
- pIC50 [1, 3]: 5.68
- pKi [2, 4]: 6.72

Structure (SMILES): Cc1c([C@@H](C)Nc2nnc(C)c3ccc(N4CCC(N5CCC(F)(F)C5)CC4)cc23)cccc1C(F)(F)F [Example 10-49, (R)-7-(4-(3,3-difluoropyrrolidin-1-yl)piperidin-1-yl)-4-methyl-N-(1-(2-methyl-3-(trifluoromethyl)phenyl)ethyl)phthalazin-1-amine Formate salt]
- pIC50 ([1]; MKN-1): 6.97
- pKi [2]: 9.25

Structure (SMILES): Cc1cc(F)ccc1[C@@H](C)Nc1nnc(C)c2cnc(N3CC4CC(C3)O4)cc12 [Example 12-84]
- pIC50 [1, 3]: 6.55
- pKi [2, 4]: 7.36

Structure (SMILES): Cc1c([C@@H](C)Nc2nnc(C)c3ccc(N4CCC5(CCNCC5)C4=O)cc23)cccc1C(F)(F)F [Example 10-39, (R)-2-(1-methyl-4-((1-(2-methyl-3-(trifluoromethyl)phenyl)ethyl)amino)phthalazin-6-yl)-2,8-diazaspiro[4.5]decan-1-one hydrochloride salt]
- pIC50 ([1]; MKN-1): 6.96
- pKi [2]: 8.83

Structure (SMILES): Cc1cccc([C@@H](C)Nc2nnc(C)c3cnc(N4CCN5CCOC[C@@H]5C4)cc23)c1F [Example 12-131]
- pIC50 [1, 3]: 7.55
- pKi [2, 4]: 8.44

Structure (SMILES): Cc1c([C@@H](C)Nc2nncc3ccc(OC4CCN(C)C4(C)C)cc23)cccc1C(F)(F)F (stereo partly drawn) [Example 2-5, N-((R)-1-(2-methyl-3-(trifluoromethyl)phenyl)ethyl)-7-((1,2,2-trimethylpyrrolidin-3-yl)oxy)phthalazin-1-amine]
- pIC50 [1, 3]: 7.09
- pKi [2, 4]: 8.75

Structure (SMILES): Cc1nnc(N[C@H](C)c2cccc(C#N)c2)c2cc(N3CCOCC3)ccc12 [Example 6-15, (R)-3-(1-((4-methyl-7-morpholinophthalazin-1-yl)amino)ethyl)benzonitrile]
- pIC50 [1, 3]: 6.76
- pKi [2, 4]: 7.90

Structure (SMILES): Cc1ncccc1[C@@H](C)Nc1nnc(C)c2ccc(N3CCOCC3)cc12 [Example 10-72, (R)-4-methyl-N-(1-(2-methylpyridin-3-yl)ethyl)-7-morpholinophthalazin-1-amine]
- pIC50 [1, 3]: 6.33
- pKi [2, 4]: 7.34
